Data taken from US9211310B2, “Use of a Chinese medicine composition in preparing medicaments for treating secondary prevention of myocardial infarction” (TASLY PHARMACEUTICAL GROUP CO., LTD, priority 2010, dated 2015).

System: patients after acute myocardial infarction
Assay: Life quality, Seattle Angina Questionnaire (SAQ), same clinical trial
Assay type: in vivo, human
Details: PP; 3 months after treatment
Source text: 3508 patients who were in accordance with the diagnostic standards of AMI for 28 days to 2 years and differentiated as Qi deficiency and blood stagnation syndrome by TCM were studied. 0.5 g Chinese medicine composition prepared by the method of EXAMPLE 1 (Coded as QSYQ) was administrated half an hour after meal, 3 times per day.
There were 19 questions in the Seattle angina questionnaire (SAQ), including 5 parts: physical limitation (PL), anginal stability (AS), anginal frequency (AF), treatment satisfaction (TS) and disease perception (DP). After being given necessary explanation by doctors, the questions were answered independently by patients.
They included the overall survival time, angina pectoris score, TCM symptom score and life quality score, where angina pectoris score, TCM symptom score and life quality score were evaluated at randomization, in 1st, 3rd, 6th, 9th, 12th month after treatment and 18th month after follow-up.
All evaluation results of SAQ were described during the period of observation, and Wilcoxon rank sum test was used for inter-group comparison.
The evaluation results in the SAQ were depicted in different observations, and inter-group comparison was tested by Wilcoxon Rank-sum test.

Compound: CC(=O)Oc1ccccc1C(=O)O [Control group, aspirine]
- 11th question: Often worried, patients (%): (19.03%)
- 11th question: Seldom worried, patients (%): (30.12%)
- SAQ 4th question, 1-2 times per week: % of patients: (17.09%)
- SAQ 4th question, 1-2 times per week: number of patients: 251
- SAQ 4th question, 1-3 times per day: % of patients: (5.31%)
- SAQ 4th question, 1-3 times per day: number of patients: 78
- SAQ 4th question, <1 time per week: % of patients: (10.35%)
- SAQ 4th question, <1 time per week: number of patients: 152
- SAQ 4th question, Not used: % of patients: (56.71%)
- SAQ 4th question, Not used: number of patients: 833
- SAQ 4th question, ≧3 times per week: % of patients: (10.55%)
- SAQ 4th question, ≧3 times per week: number of patients: 155
- SAQ 4th question, ≧4 times per day: % of patients: (0.00%)
- SAQ 4th question, ≧4 times per day: number of patients: 0
- SAQ 5th question, Few: % of patients: (24.57%)
- SAQ 5th question, Few: number of patients: 361
- SAQ 5th question, Mild: % of patients: (26.14%)
- SAQ 5th question, Mild: number of patients: 384
- SAQ 5th question, Moderate: % of patients: (16.13%)
- SAQ 5th question, Moderate: number of patients: 237
- SAQ 5th question, None: % of patients: (27.16%)
- SAQ 5th question, None: number of patients: 399
- SAQ 5th question, Not medicated by doctors: % of patients: (4.56%)
- SAQ 5th question, Not medicated by doctors: number of patients: 67
- SAQ 5th question, Severe: % of patients: (1.43%)
- SAQ 5th question, Severe: number of patients: 21
- SAQ 6th question, Dissatisfied: % of patients: (0.07%)
- SAQ 6th question, Dissatisfied: number of patients: 1
- SAQ 6th question, Highly satisfied: % of patients: (20.04%)
- SAQ 6th question, Highly satisfied: number of patients: 295
- SAQ 6th question, Mostly dissatisfied: % of patients: (2.51%)
- SAQ 6th question, Mostly dissatisfied: number of patients: 37
- SAQ 6th question, Mostly satisfied: % of patients: (51.09%)
- SAQ 6th question, Mostly satisfied: number of patients: 752
- SAQ 6th question, Partly satisfied: % of patients: (26.29%)
- SAQ 6th question, Partly satisfied: number of patients: 387
- SAQ 7th question, Dissatisfied: % of patients: (0.07%)
- SAQ 7th question, Dissatisfied: number of patients: 1
- SAQ 7th question, Highly satisfied: % of patients: (23.06%)
- SAQ 7th question, Highly satisfied: number of patients: 339
- SAQ 7th question, Mostly dissatisfied: % of patients: (1.84%)
- SAQ 7th question, Mostly dissatisfied: number of patients: 27
- SAQ 7th question, Mostly satisfied: % of patients: (53.47%)
- SAQ 7th question, Mostly satisfied: number of patients: 786
- SAQ 7th question, Partly satisfied: % of patients: (21.56%)
- SAQ 7th question, Partly satisfied: number of patients: 317
- SAQ Question 1-1 Mildly limited, number of patients: 22
- SAQ Question 1-1 Mildly limited, percent of patients: (1.50%)
- SAQ Question 1-1 Moderately limited, number of patients: 6
- SAQ Question 1-1 Moderately limited, percent of patients: (0.41%)
- SAQ Question 1-1 Not limited, number of patients: 1381
- SAQ Question 1-1 Not limited, percent of patients: (93.95%)
- SAQ Question 1-1 Other reasons, number of patients: 3
- SAQ Question 1-1 Other reasons, percent of patients: (0.20%)
- SAQ Question 1-1 Severely limited, number of patients: 0
- SAQ Question 1-1 Severely limited, percent of patients: (0.00%)
- SAQ Question 1-1 Slightly limited, number of patients: 58
- SAQ Question 1-1 Slightly limited, percent of patients: (3.95%)
- SAQ Question 1-2 Mildly limited, number of patients: 19
- SAQ Question 1-2 Mildly limited, percent of patients: (1.29%)
- SAQ Question 1-2 Moderately limited, number of patients: 8
- SAQ Question 1-2 Moderately limited, percent of patients: (0.54%)
- SAQ Question 1-2 Not limited, number of patients: 1353
- SAQ Question 1-2 Not limited, percent of patients: (92.04%)
- SAQ Question 1-2 Other reasons, number of patients: 6
- SAQ Question 1-2 Other reasons, percent of patients: (0.41%)
- SAQ Question 1-2 Severely limited, number of patients: 0
- SAQ Question 1-2 Severely limited, percent of patients: (0.00%)
- SAQ Question 1-2 Slightly limited, number of patients: 84
- SAQ Question 1-2 Slightly limited, percent of patients: (5.71%)
- SAQ Question 1-6: Mildly limited, patients (%): (17.92%)
- SAQ Question 1-6: Moderately limited, patients (%): (13.89%)
- SAQ Question 1-6: Not limited, patients (%): (30.92%)
- SAQ Question 1-6: Other reasons, patients (%): (0.96%)
- SAQ Question 1-6: Severely limited, patients (%): (3.83%)
- SAQ Question 1-6: Slightly limited, patients (%): (32.49%)
- SAQ Question 1-7: Mildly limited, patients (%): (23.81%)
